Assay results taken from US8835472B2, “Compounds, pharmaceutical compositions and uses thereof” (Boehringer Ingelheim International GmbH, priority 2010, dated 2014).

molecular target: human ACC2 (Homo sapiens (Human), UniProt O00763); experiment: ACC2 assay, spectrophotometric 384 well assay (NADH-linked, coupled lactate dehydrogenase/pyruvate kinase reaction); format: biochemical; conditions: hACC2 construct lacking the 128 N-terminal amino acids; 25° C., 340 nm over 15 minutes
Summary of the method: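 Kinetic NADH-linked assay (pyruvate kinase/lactate dehydrogenase coupling) with baculovirus-expressed hACC2 missing its first 128 amino acids. Started with 500 μM ATP and 200 μM each NADH and acetyl-CoA; slope followed 15 min at 25 °C, pH 7.5. No-acetyl-CoA wells define 0%; IC50 by nonlinear regression.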

Sequence of human ACC2 (O00763 129-2458): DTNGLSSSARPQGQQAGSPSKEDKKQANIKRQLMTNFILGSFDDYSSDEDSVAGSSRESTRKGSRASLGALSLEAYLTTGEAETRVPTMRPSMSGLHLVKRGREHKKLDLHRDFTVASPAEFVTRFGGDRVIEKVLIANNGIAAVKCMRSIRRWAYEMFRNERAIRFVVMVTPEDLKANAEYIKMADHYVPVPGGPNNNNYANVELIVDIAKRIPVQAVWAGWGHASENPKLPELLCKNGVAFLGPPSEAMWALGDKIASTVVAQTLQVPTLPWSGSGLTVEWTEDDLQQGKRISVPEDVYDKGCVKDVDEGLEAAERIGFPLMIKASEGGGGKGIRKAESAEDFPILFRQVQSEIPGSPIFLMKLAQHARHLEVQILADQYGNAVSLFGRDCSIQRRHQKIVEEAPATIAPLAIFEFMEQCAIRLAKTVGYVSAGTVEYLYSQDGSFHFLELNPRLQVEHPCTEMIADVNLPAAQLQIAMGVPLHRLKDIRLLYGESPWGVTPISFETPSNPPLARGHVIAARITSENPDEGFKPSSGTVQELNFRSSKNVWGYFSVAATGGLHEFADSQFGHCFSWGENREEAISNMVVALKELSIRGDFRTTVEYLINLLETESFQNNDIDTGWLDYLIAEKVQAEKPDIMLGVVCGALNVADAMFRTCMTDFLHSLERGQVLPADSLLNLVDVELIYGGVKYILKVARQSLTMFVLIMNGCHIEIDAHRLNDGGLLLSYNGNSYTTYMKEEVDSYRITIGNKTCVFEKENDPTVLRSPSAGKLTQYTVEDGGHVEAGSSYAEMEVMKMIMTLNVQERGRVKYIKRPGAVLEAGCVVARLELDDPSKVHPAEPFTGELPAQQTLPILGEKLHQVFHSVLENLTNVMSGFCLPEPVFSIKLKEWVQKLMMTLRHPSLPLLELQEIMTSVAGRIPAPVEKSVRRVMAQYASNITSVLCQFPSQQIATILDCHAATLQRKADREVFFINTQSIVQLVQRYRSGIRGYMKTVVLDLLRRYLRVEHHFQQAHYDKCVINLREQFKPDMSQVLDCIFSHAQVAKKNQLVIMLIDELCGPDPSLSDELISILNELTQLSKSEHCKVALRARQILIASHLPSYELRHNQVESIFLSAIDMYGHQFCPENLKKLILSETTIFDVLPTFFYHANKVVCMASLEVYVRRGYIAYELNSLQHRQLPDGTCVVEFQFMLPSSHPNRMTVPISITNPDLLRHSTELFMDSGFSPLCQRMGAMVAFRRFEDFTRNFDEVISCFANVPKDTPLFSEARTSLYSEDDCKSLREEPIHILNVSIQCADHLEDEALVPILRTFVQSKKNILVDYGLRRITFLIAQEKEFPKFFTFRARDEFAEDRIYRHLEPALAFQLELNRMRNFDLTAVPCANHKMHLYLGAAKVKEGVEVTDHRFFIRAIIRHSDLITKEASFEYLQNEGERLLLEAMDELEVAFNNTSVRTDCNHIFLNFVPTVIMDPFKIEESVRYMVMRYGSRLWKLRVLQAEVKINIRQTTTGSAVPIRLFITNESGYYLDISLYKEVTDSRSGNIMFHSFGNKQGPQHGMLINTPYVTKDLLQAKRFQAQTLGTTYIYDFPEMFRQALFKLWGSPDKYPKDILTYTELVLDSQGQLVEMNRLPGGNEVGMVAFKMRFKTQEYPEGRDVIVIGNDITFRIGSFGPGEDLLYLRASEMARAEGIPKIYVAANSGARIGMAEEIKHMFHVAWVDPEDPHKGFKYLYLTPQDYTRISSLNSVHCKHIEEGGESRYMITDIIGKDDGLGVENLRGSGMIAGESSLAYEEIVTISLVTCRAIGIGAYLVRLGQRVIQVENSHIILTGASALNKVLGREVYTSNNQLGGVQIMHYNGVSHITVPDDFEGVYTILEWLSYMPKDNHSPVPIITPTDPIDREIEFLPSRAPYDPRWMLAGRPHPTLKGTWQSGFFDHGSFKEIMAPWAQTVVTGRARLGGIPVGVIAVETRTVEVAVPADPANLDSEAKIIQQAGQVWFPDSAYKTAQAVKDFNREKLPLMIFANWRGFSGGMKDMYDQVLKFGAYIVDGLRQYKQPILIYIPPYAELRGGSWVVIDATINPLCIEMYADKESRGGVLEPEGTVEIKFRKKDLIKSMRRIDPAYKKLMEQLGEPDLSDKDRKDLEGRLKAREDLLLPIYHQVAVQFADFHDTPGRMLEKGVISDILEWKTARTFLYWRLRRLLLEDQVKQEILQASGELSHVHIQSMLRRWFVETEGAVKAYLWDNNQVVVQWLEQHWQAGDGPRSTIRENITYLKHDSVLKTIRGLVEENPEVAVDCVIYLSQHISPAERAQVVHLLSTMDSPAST

Row | IC50 [nM] | Structure (SMILES)
1 | 3100 | C[C@H](NC(=O)C1CC1)c1ccc(C#Cc2cnc(NC3CCC3)nc2)cc1 [Example 13.88]
2 | 510 | CC(=O)N[C@@H](C)c1ccc(C#Cc2ccc(OC(C)C)cc2)cc1 [Example 14.20]
3 | 24600 | CC(=O)NC(C)(C)c1ccc(C#Cc2ccc(OC3CCC3)cc2)cc1 [Example 2.42]
4 | 800 | CCCOc1ccc(C#Cc2ccc(CC(C)NC(=O)C3CC3)cc2)cn1 (stereo not drawn) [Example 2.70]
5 | 1700 | COC(C)CN(C)c1nccc(C#Cc2ccc(CC(C)NC(C)=O)cc2)n1 (stereo not drawn) [Example 11.17]
6 | 2600 | CC(=O)NC(C)Cc1ccc(C#Cc2cnc(OCC(C)(F)F)nc2)cc1 (stereo not drawn) [Example 12.43]
7 | 580 | CCOc1cc(C#Cc2ccc(C(C)NC(C)=O)cc2)ccn1 (stereo not drawn) [Example 2.102]
8 | 410 | CCCc1ccc(C#Cc2ccc(C(C)NC(C)=O)cc2)cc1 (stereo not drawn) [Example 2.46]
9 | 270 | CC(=O)NC(C)Cc1ccc(C#Cc2ccc(C)cc2Cl)cc1 (stereo not drawn) [Example 3.2]
10 | 7200 | CCOc1ccc(C#Cc2ccc(C(C)NS(=O)(=O)CC3CC3)cc2)cc1 (stereo not drawn) [Example 5.2]
11 | 2400 | CCC(C)NC(=O)c1cccc(C#Cc2ccc(CC(C)NC(C)=O)cc2)c1 (stereo not drawn) [Example 8.35]
12 | 200 | CC(=O)NC(C)Cc1ccc(C#Cc2ccc(Oc3ccccc3)nc2)cc1 (stereo not drawn) [Example 1.8]
13 | 3800 | CCOc1cccc(C#Cc2ccc(CC(C)NC(=O)C3CC3)cc2)c1 (stereo not drawn) [Example 14.52]
14 | 4900 | CC(=O)NC(C)Cc1ccc(C#Cc2cnn(C)c2)cc1 (stereo not drawn) [Example 2.107]
15 | 930 | CC(=O)NC(C)Cc1ccc(C#Cc2ccnc(N3CCCC3)n2)cc1 (stereo not drawn) [Example 11.43]
16 | 16600 | CC(=O)NC(C)Cc1ccc(C#Cc2ccc(C(=O)NCc3ccncc3)cc2)cc1 (stereo not drawn) [Example 8.11]
17 | 4700 | CC(=O)NC(C)Cc1ccc(C#Cc2nccs2)cc1 (stereo not drawn) [Example 3.16]
18 | 1600 | CCC(CC)Oc1ccc(C#Cc2ccc(CC(C)NC(=O)C3CC3)cc2)cc1 (stereo not drawn) [Example 14.33]
19 | 25100 | CC(=O)NC(C)Cc1ccc(C#Cc2cccc(C(=O)N3CCN(C)CC3)c2)cc1 (stereo not drawn) [Example 8.54]
20 | 5600 | CC(=O)NC(C)Cc1ccc(C#Cc2ccnc(N3CCC3)n2)cc1 (stereo not drawn) [Example 11.12]
21 | 1600 | CC(=O)NC(C)Cc1ccc(C#Cc2cnc(NCCF)nc2)cc1 (stereo not drawn) [Example 13.65]

Row | IC50 [nM] | Structure (SMILES)
22 | 460 | CC(=O)NC(C)Cc1ccc(C#Cc2ccc(-n3cccc3)cc2)cc1 (stereo not drawn) [Example 2.1, N-(1-(4-((4-(1H-Pyrrol-1-yl)phenyl)ethynyl)phenyl)propan-2-yl)acetamide]
23 | 4400 | CCOc1ccc(C#Cc2ccc(CC(C)N(C)C(=O)CC)cc2)cc1 (stereo not drawn) [Example 18.2]
24 | 200 | CC(=O)NC(C)Cc1ccc(C#Cc2ccc(OC3COC3)cc2)cc1 (stereo not drawn) [Example 31.2]
25 | 80 | CCOc1ccc(C#Cc2ccc(C[C@H](C)NC(C)=O)cc2)cc1 [Example 24.2]
26 | 530 | CC(=O)NC(C)Cc1ccc(C#Cc2cnc(OCc3ccccc3)nc2)cc1 (stereo not drawn) [Example 12.20]
27 | 1200 | COc1ccc(C#Cc2ccc(CC(C)NC(C)=O)cc2)c(C#N)c1 (stereo not drawn) [Example 3.12]
28 | 340 | CC(=O)NC(C)Cc1ccc(C#Cc2ccc(OCC3(C)COC3)cc2)cc1 (stereo not drawn) [Example 9.33]
29 | 250 | CC(=O)NC(C)Cc1ccc(C#Cc2ccnc(N(C)CC3CC3)n2)cc1 (stereo not drawn) [Example 11.21]
30 | 300 | CC(=O)NC(C)Cc1ccc(C#Cc2cnn(Cc3ccccc3)c2)cc1 (stereo not drawn) [Example 2.108]
31 | 680 | CCOc1ccc(C#Cc2ccc(CC(C)NC(=O)CCC#N)cc2)cc1 (stereo not drawn) [Example 4.13]
32 | 22000 | CC(=O)NC(C)Cc1ccc(C#Cc2cccc(C(=O)N3CCC(C(=O)OC(C)(C)C)C3)c2)cc1 (stereo not drawn) [Example 8.49]
33 | 1300 | COc1cc(C#Cc2ccc(CC(C)NC(C)=O)cc2)ccc1Cl (stereo not drawn) [Example 3.3]
34 | 1500 | CC(=O)NC(C)Cc1ccc(C#Cc2ccc(C(=O)N3Cc4ccccc4C3)cc2)cc1 (stereo not drawn) [Example 8.12]
35 | 220 | CC(=O)NC(C)Cc1ccc(C#Cc2cnc(N3CCC(C)(C)CC3)nc2)cc1 (stereo not drawn) [Example 13.57]
36 | 4500 | CC(=O)NC(C)Cc1ccc(C#Cc2cccc(C(=O)NCC3CCCO3)c2)cc1 (stereo not drawn) [Example 8.29]
37 | 70 | CC(=O)NCC(C)c1ccc(C#Cc2cnc(OC3CCC3)nc2)cc1 (stereo not drawn) [Example 32.3]
38 | 30000 | CC(=O)NC(C)Cc1ccc(C#Cc2cccc(C(=O)N3CCc4ccccc4C3)c2)cc1 (stereo not drawn) [Example 8.51]
39 | 500 | CC(=O)NC(C)c1ccc(C#Cc2cccc(OCc3ccccc3)c2)cc1 (stereo not drawn) [Example 2.103]
40 | 3800 | CC(=O)NC(C)Cc1ccc(C#Cc2cnc(NCc3cnn(C)c3)nc2)cc1 (stereo not drawn) [Example 13.61]
41 | 3400 | CC(C)Oc1ccc(C#Cc2ccc([C@H](C)NC(=O)C3CC3)cc2)cc1 [Example 14.28]
42 | 5600 | CCOc1ccc(C#Cc2ccc(CC(C)NC(=O)c3cocn3)cc2)cc1 (stereo not drawn) [Example 4.56]

Row | IC50 [nM] | Structure (SMILES)
43 | 1600 | COC(=O)NC(C)Cc1ccc(C#Cc2cnc(NC3CC3)nc2)cc1 (stereo not drawn) [Example 13.36]
44 | 4000 | CC(=O)NC(C)Cc1ccc(C#Cc2cc(C)c3c(c2)oc(=O)n3C)cc1 (stereo not drawn) [Example 2.81]
45 | 820 | CC(=O)NC(C)Cc1ccc(C#Cc2ccc(OCC3(N)CC3)c(C)c2)cc1 (stereo not drawn) [Example 2.5]
46 | 1100 | CCCOc1ncc(C#Cc2ccc(CC(C)NC(=O)C3CC3)cc2)cn1 (stereo not drawn) [Example 12.23]
47 | 440 | CC(Cc1ccc(C#Cc2ccc(OC(C)C)cc2)cc1)NC(=O)C1CC1 (stereo not drawn) [Example 14.41]
48 | 4600 | CC(=O)NC(C)Cc1ccc(C#Cc2ccc(C(=O)N(C)c3ccccc3)cc2)cc1 (stereo not drawn) [Example 8.19]
49 | 1100 | CCOc1ccc(C#Cc2ccc(CC(C)NC(=O)c3ccon3)cc2)cc1 (stereo not drawn) [Example 4.65]
50 | 100 | CC(=O)NC(C)Cc1ccc(C#Cc2ccc(OCCC(F)(F)F)cc2)cc1 (stereo not drawn) [Example 9.32]
51 | 13800 | CCNc1nccc(C#Cc2ccc(CC(C)NC(C)=O)cc2)n1 (stereo not drawn) [Example 11.14]
52 | 1000 | CC(=O)N[C@@H](C)c1ccc(C#Cc2cnc(NC3CCC3)nc2)cc1 [Example 13.89]
53 | 11500 | CC(=O)NC(C)Cc1ccc(C#Cc2ccc(C(=O)N(C)Cc3cccnc3)cc2)cc1 (stereo not drawn) [Example 8.14]
54 | 200 | CC(=O)NC(C)Cc1ccc(C#Cc2cnc(OC3CCCC3)nc2)cc1 (stereo not drawn) [Example 27.1, N-{2-[4-(2-Cyclopentyloxy-pyrimidin-5-ylethynyl)-phenyl]-1-methyl-ethyl}-acetamide]
55 | 230 | CCNc1ncc(C#Cc2ccc(CC(C)NC(C)=O)cc2)cn1 (stereo not drawn) [Example 13.13]
56 | 1100 | CC(=O)NC(C)Cc1ccc(C#Cc2ccnc(OC3CCC3)n2)cc1 (stereo not drawn) [Example 12.6]
57 | 360 | CC(=O)NC(C)Cc1ccc(C#Cc2cnc(NCC(F)(F)F)nc2)cc1 (stereo not drawn) [Example 13.59]
58 | 4500 | COC(=O)NC(C)Cc1ccc(C#Cc2cnc(NCCF)nc2)cc1 (stereo not drawn) [Example 13.42]
59 | 7200 | CC(Cc1ccc(C#Cc2ccc(C3CC3)cn2)cc1)NC(=O)C1CC1 (stereo not drawn) [Example 2.67]
60 | 280 | CCCCOc1ncc(C#Cc2ccc(CC(C)NC(C)=O)cc2)cn1 (stereo not drawn) [Example 12.34]
61 | 1500 | CCC(C)Nc1ncc(C#Cc2ccc(CC(C)NC(=O)C3CC3)cc2)cn1 (stereo not drawn) [Example 13.50]
62 | 380 | CCOc1ccc(C#Cc2ccc(CC(C)NC(=O)C3CC3C)cc2)cc1 (stereo not drawn) [Example 4.35]
63 | 560 | CCOc1ccc(C#Cc2ccc(CC(C)NC(=O)C3(O)CC3)cc2)cc1 (stereo not drawn) [Example 4.12]

Row | IC50 [nM] | Structure (SMILES)
64 | 1900 | CC(=O)NC(C)Cc1ccc(C#Cc2ccc(C(=O)N3CCC(C)(C)CC3)cc2)cc1 (stereo not drawn) [Example 8.16]
65 | 350 | COc1ccc(C#Cc2ccc(CC(C)NC(C)=O)cc2)c(Cl)c1 (stereo not drawn) [Example 3.15]
66 | 10100 | CC(=O)NC(C)(C)c1ccc(C#Cc2ccnc(OC(C)C)c2)cc1 [Example 2.38]
67 | 750 | CC(=O)NC(C)Cc1ccc(C#Cc2ccnc(N(C)C(C)C)n2)cc1 (stereo not drawn) [Example 11.8]
68 | 1100 | CC(=O)NC(C)Cc1ccc(C#Cc2ccnc(N3CCC(c4ccccc4)CC3)n2)cc1 (stereo not drawn) [Example 11.40]
69 | 1200 | CC(=O)NC(C)Cc1ccc(C#Cc2cccc(C(=O)NC3CCC3)c2)cc1 (stereo not drawn) [Example 8.34]
70 | 1800 | CC#CCN(CC(C)C)c1nccc(C#Cc2ccc(CC(C)NC(C)=O)cc2)n1 (stereo not drawn) [Example 11.25]
71 | 2300 | CC(=O)NC(C)Cc1ccc(C#Cc2ccc(Cl)c(C#N)c2)cc1 (stereo not drawn) [Example 3.6]
72 | 8500 | CCOc1nccc(C#Cc2ccc(CC(C)NC(C)=O)cc2)n1 (stereo not drawn) [Example 12.1, N-(1-(4-((2-ethoxypyrimidin-4-yl)ethynyl)phenyl)propan-2-yl)acetamide]
73 | 610 | COCCOc1ccc(C#Cc2ccc(CC(C)NC(C)=O)cc2)cc1 (stereo not drawn) [Example 9.4]
74 | 640 | CC(=O)NC(C)Cc1ccc(C#Cc2ccc(N3CCOCC3)cc2)cc1 (stereo not drawn) [Example 2.73]
75 | 1100 | CCCOc1cc(C#Cc2ccc(CCNC(C)=O)cc2)ccn1 [Example 14.39]
76 | 70 | CCOc1ccc(C#Cc2ccc(CC(C)NC(=O)c3cncs3)cc2)cc1 (stereo not drawn) [Example 4.67]
77 | 1400 | CC(=O)NC(C)Cc1ccc(C#Cc2ccc(C(=O)NC3CCC3)cc2)cc1 (stereo not drawn) [Example 8.21]
78 | 3700 | COc1ncc(C#Cc2ccc(CC(C)NC(=O)C3CC3)cc2)c(OC)n1 (stereo not drawn) [Example 2.58]
79 | 5800 | CC(=O)NC(C)Cc1ccc(C#Cc2ccc3c(c2)CCC3=O)cc1 (stereo not drawn) [Example 2.76]
80 | 560 | CC(=O)NC(C)Cc1ccc(C#Cc2ccc(Br)cc2)cc1 (stereo not drawn) [Example 2.15]
81 | 140 | CCOc1ccc(C#Cc2ccc(CC(C)NC(=O)C3(C)CC3)cc2)cc1 (stereo not drawn) [Example 4.21]
82 | 330 | CCCOc1ccc(C#Cc2ccc(CC(C)(C)NC(=O)C3CC3)cc2)cc1 [Example 35.2]
83 | 910 | CC(=O)NC(C)Cc1ccc(C#Cc2cnc3ccccc3c2)cc1 (stereo not drawn) [Example 2.72]
84 | 1400 | CC(Cc1ccc(C#Cc2ccc(Oc3cncnc3)cc2)cc1)NC(=O)C1CC1 (stereo not drawn) [Example 23.11]
